The assay concerns fibroblasts from CF subjects, heterozygote carriers and controls. Description: O2 consumption of skin fibroblast suspensions measured polarographically, with electron transport inhibitors. It counts as cell-based, human. On the procedure:
Skin fibroblast strains from the upper arm were obtained from subjects with CF and age- and sex-matched controls and from obligate CF heterozygote parents and their age- and sex-matched controls. Cells were stored in liquid nitrogen at early passages and thawed for use as needed. In all but a few experiments, strains were passage matched. For O2 consumption studies and mitochondrial preparations, monolayers were grown in 285×115 mm roller bottles (Bellco Glass, N.J.). For NADH dehydrogenase studies, monolayers were grown in 75 cm^2 flasks (Falcon, Oxnard, Ca.). Monolayers were cultured in Eagle's minimal essential medium with Earle's salts plus L-glutamine (K. C. Biologicals, Inc., Lenexa, Kans.), supplemented with 10 percent fetal calf serum, 100 units per ml of penicillin, and 100 μg/ml of streptomycin (Gibco, Grand Island, N.Y.). The cultures were maintained at 37° in 95 percent air-5 percent CO2 atmosphere. Cells were harvested with trypsin-EDTA [(1:250 tryspin+0.2 g EDTA/1 (Gibco, Grand Island, N.Y.)].
Confluent monolayers of fibroblasts as prepared in Example 1 were harvested by trypsin-EDTA digestion. Cells were pelleted by centrifugation at 600×g for 5 min, washed with 10 ml of cold Hank's Balanced Salt Solution (HBSS) containing 0.1 mg/ml bovine serum albumin and 10 mg/ml dextrose, pH 7.4. 100 μl aliquots of the washed cell suspension were taken for cell counting using a ZBI Coulter Counter. The washed cells were again pelleted by centrifugation and resuspended in 1 ml cold HBSS. O2 consumption was measured polarographically on a cell suspension of 1×10^7 cells in a final volume of 3 ml by an O2 electrode system (Clark model 53, Yellow Springs Instruments, Ohio). […] In these experiments the baseline O2 uptake rate was determined for each cell line. Prior to removing the cells from the electrode chamber, 100 μl of 100 μ M rotenone were added and O2 consumption recorded. […]
The change in O2 consumption rate caused by rotenone was recorded as percent of initial O2 consumption rate. Each point represents percent inhibition measured on one cell strain.

As to `C=C(C)[C@H]1Cc2c(ccc3c2O[C@@H]2COc4cc(OC)c(OC)cc4[C@@H]2C3=O)O1` [rotenone], the “Inhibition of O2 consumption (change in O2 consumption rate as percent of initial rate)” value (100 μl of 100 μM rotenone added to 1×10^7 cells in 3 ml, all cell strains tested) is listed as “inhibited O2 consumption in all cell strains tested”. Further, the “Relative inhibitory effect on O2 consumption among genotypes” value (100 μl of 100 μM rotenone, CF, HZ (carrier) and control fibroblast strains, FIG. 5) was “CF>HZ>controls”. For the same compound, under “cells treated with rotenone, CF subjects, carriers, controls”, the “O2 consumption after treatment with the inhibitor, compared between genotypes” value is “cells from cystic fibrosis subjects and carriers consume equal amounts of oxygen, as do controls”.
